# US20070299087A1, “New Compounds 319” (AstraZeneca AB, priority 2006, published 2007)
# pIC50: −log10 of the molar value.
# Target: T1, human β-Secretase (sBACE-Fc) (Homo sapiens, UniProt P56817)
# T1 construct: The soluble part of the human β-Secretase (AA 1-AA 460) was cloned; Fc domain of IgG1 (C); made in house
# Experiment: TR-FRET assay (β-secretase enzyme, substrate (Europium)[…](Qsy7))
# Type: biochemical
# Protocol: The enzyme used in the IGEN Cleavage-, Fluorescent-, TR-FRET- and BiaCore assays is described as follows:
# The soluble part of the human β-Secretase (AA 1-AA 460) was cloned into the ASP2-Fc10-1-IRES-GFP-neoK mammalian expression vector. The gene was fused to the Fc domain of IgG1 (affinity tag) and stably cloned into HEK 293 cells. Purified sBACE-Fc is stored in Tris buffer, pH 9.2 and has a purity of 95%.
# Enzyme was diluted to 6 μg/mL and the substrate (Europium)[…](Qsy7) to 200 nM in reaction buffer (NaAcetate, chaps, triton x-100, EDTA pH 4.5). Compounds were diluted to the desired concentration in dimethyl sulfoxide (final dimethyl sulfoxide concentration in assay is 5%). The assay was done in a Costar 384 well round bottom, low volume, non-binding surface plate (Corning #3676). Enzyme (9 μL) and 1 μL of compound in dimethyl sulfoxide was added to the plate, mixed and pre-incubated for 10 min. Substrate (10 μL) was added and the reaction proceeded in the dark for 15 min at RT. The reaction was stopped with the addition of 7 μL NaAcetate, pH 9. The fluorescence of the product was measured on a Victor II plate reader with an excitation wavelength of 340 nm and an emission wavelength of 615 nm. […] The dimethyl sulfoxide control defined the 100% activity level and 0% activity was defined by exclusion of the enzyme (using reaction buffer instead).
# T1 sequence (P56817 22-460): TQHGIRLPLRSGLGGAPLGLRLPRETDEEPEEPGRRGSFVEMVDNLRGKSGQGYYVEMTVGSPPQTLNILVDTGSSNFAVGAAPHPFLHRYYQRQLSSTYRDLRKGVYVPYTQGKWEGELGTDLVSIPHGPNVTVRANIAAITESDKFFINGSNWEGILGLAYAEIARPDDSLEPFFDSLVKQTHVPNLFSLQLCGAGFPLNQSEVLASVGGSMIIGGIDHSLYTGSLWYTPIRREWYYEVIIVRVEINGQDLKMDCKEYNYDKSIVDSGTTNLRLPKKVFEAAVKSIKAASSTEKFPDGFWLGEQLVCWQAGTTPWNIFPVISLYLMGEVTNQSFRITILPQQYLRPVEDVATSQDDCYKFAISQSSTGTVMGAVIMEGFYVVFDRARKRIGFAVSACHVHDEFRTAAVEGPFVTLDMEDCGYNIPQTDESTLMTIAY
row,SMILES,pIC50
1,"COc1cccc(-c2cccc(C3(c4ccncc4)N=C(N)N4CC(F)(F)CN=C43)c2)c1 (stereo not shown) [Example 72, 3,3-Difluoro-8-(3′-methoxybiphenyl-3-yl)-8-pyridin-4-yl-2,3,4,8-tetrahydroimidazo[1,5-a]pyrimidin-6-amine 1.25 acetate]",7.17
2,"NC1=NC(c2cccc(-c3cccnc3F)c2)(c2ccncc2F)C2=NCC(F)(F)CN12 (stereo not shown) [Example 90, 3,3-Difluoro-8-(3-fluoropyridin-4-yl)-8-[3-(2-fluoropyridin-3-yl)phenyl]-2,3,4,8-tetrahydroimidazo[1,5-a]pyrimidin-6-amine]",6.54
3,"NC1=NC(c2cccc(-c3cncnc3)c2)(c2ccncc2F)C2=NCC(F)(F)CN12 (stereo not shown) [Example 91, 3,3-Difluoro-8-(3-fluoropyridin-4-yl)-8-(3-pyrimidin-5-ylphenyl)-2,3,4,8-tetrahydroimidazo[1,5-a]pyrimidin-6-amine]",6.36

# The next compounds have a higher pIC50 than those just listed; values first:
row,pIC50,SMILES
1,7.21,"NC1=NC(c2ccncc2)(c2cccc(-c3cc(Cl)cnc3F)c2)C2=NCC(F)(F)CN12 (stereo not shown) [Example 73, 3,3-Difluoro-8-[3-(5-Chloro-2-fluoropyridin-3-yl)phenyl]-8-pyridin-4-yl-2,3,4,8-tetrahydroimidazo[1,5-a]pyrimidin-6-amine acetate]"
2,7.31,"NC1=NC(c2ccncc2)(c2ccc(F)c(-c3cccnc3F)c2)C2=NCC(F)(F)CN12 (stereo not shown) [Example 81, 3,3-Difluoro-8-[4-fluoro-3-(2-fluoropyridin-3-yl)phenyl]-8-pyridin-4-yl-2,3,4,8-tetrahydroimidazo[1,5-a]pyrimidin-6-amine acetate]"
3,7.38,"COc1cccc(-c2cc(C3(c4ccncc4)N=C(N)N4CC(F)(F)CN=C43)ccc2F)c1F (stereo not shown) [Example 82, 3,3-Difluoro-8-(2′,6-difluoro-3′-methoxybiphenyl-3-yl)-8-pyridin-4-yl-2,3,4,8-tetrahydroimidazo[1,5-a]pyrimidin-6-amine acetate]"
4,7.32,"COc1cncc(-c2cc(C3(c4ccncc4)N=C(N)N4CC(F)(F)CN=C43)ccc2F)c1 (stereo not shown) [Example 83, 3,3-Difluoro-8-[4-fluoro-3-(5-methoxypyridin-3-yl)phenyl]-8-pyridin-4-yl-2,3,4,8-tetrahydroimidazo[1,5-a]pyrimidin-6-amine 0.5 acetate]"
